Reference: patent US6300350A, “Treatment of emphysema using RARy selective retinoid agonists” (priority 2000, dated 2001)

Key:
tropoelastin gene = experiment: RAR transactivation of steady state tropoelastin gene in normal human lung fibroblasts (CCD-16Lu); format: cell-based
Procedure: Transactivation of the tropoelastin gene in normal human lung fibroblasts (CCD-16Lu) was performed as described below. Cells were grown to confluence at which time fresh media +/- ATRA or selective retiniod was added to the basal culture. ATRA and/or selective retiniods were used at a concentration of 1×10^-7 M. The cell layer was lysed using a guanidinium-based buffer (TRIZOL/Sigma) for RNA extraction and analysis. Amplification of tropoelastin and GAPDH RNA was performed by standard quantitative RT-PCR (TAQMAN, Perken/Elmer) using appropriate selective primers. Tropo-elastin gene expression was normalized to the expression of standard house-keeping gene (GAPDH).
Samples were run in triplicate.

[1] = tested on: elastase-induced emphysema; experiment: Alveolar repair in rat model of elastase-induced emphysema, intraperitoneal; format: in vivo, male Sprague Dawley rats; parameters: Alveolar Area: unit not given here
Procedure: Animals were divided into treatment groups of approximately eight. […] Three weeks post injury ATRA or a RAR selective agonist was dissolved in DMSO (20 mg/ml) and stored at -20 C. Fresh working stocks were prepared fresh daily by dilution in corn oil to a final concentration of 2 mg/ml. […] Control groups were challenged with elastase and 21 days later treated with Vehicle (DMSO/PBS) for 14 days. Animals were sacrificed 24 hours after the last dose of by exsanguination under deep anesthesia. Blood was collected at time of exanguination for analysis of changes in blood chemistry from respective treatments. The lungs were inflated with 10% neutral buffered formalin by intratracheal instillation at a constant rate (1 ml/gram body mass/min). The lung was excised and immersed in fixative for 24 hours prior to processing. Standard methods were used to prepare 5 um paraffin sections. Sections were stained with Hematoxylin and Eosin (H%E). Computerized Morphometric analysis was performed to determine the average alveolar size and alveolar number.

experimental emphysema = experiment: Alveolar repair in rat experimental emphysema, oral dosing; format: in vivo, rats; conditions: 1 mg/kg/PO daily for two weeks
Procedure: (§1) Three (3) weeks post injury animals were treated with vehicle (Capmul solution) or retinoids prepared in Capmul and dosed orally at 1, 3, and 10 mg/kg body weight. Animals were treated for 14 days prior to termination of study.
Dosage was at 1 mg/kg/PO daily for two weeks.

[2] = Plasma triglyceride levels in rats; format: in vivo; conditions: plasma, 1 mg/kg/PO daily for two weeks
Procedure: as §1, with “Experimental emphysema was induced in rats as described in Example 2. Three” for “Three”, “study. Lung harvest and blood collection was performed as described in Example 2.” for “study.”
Quantitation of triglycerides contained in rat plasma was performed after using established procedures in a contact clinical laboratory facility. Briefly, plasma triglycerides were converted to dihdroxyacetone and H2 O2, by sequential treatment of plasma with lipase and glycerokinase according directions described by manufacturer of triglycerides/GPO kit (Boehringer Mannheim #1488872). H2 02 was quantitated calorimetrically in a Hitachi 911 Chemistry Analyzer. In rats normal triglyceride levels are 75-175 mg/dl.
Dosage was at 1 mg/kg/PO daily for two weeks. […] Therefore, it appears that RARα selective activity is linked to elevated triglyceride levels.

alveolar septation = conditions: postnatal administration; newborn rats; listed as ATRA; cited from earlier work
emphysema = conditions: animal models of emphysema; cited from earlier work
RAR subtypes = conditions: cited from earlier work
RXR receptors = conditions: cited from earlier work

## CC1=C(/C=C/C(C)=C/C=C/C(C)=C/C(=O)O)C(C)(C)CCC1 [RAR Agonist 4, All-trans retinoic acid]
Tropoelastin gene; CCD-16Lu, 1×10^-7 M, RT-PCR, triplicate, untreated control 30.90
  Tropo-elastin Expression: 35.50 (Elastin/GAPDH) × 10^5
Tropoelastin gene; human lung fibroblasts, compared to the control
  tropoelastin gene induction (in words): slightly induces tropoelastin gene induction
[1]; 0.5 mg/kg ip once daily, from 21 days post injury, 14 days
  % Repair: 50%
[1]; 0.5 mg/kg ip once daily, from 21 days post injury, 14 days, naive 1637 +/- 153, elastase + vehicle 3570 +/- 319
  Alveolar Area: 2607 +/- 191
[1]; elastase-treated rats, 0.5 mg/kg ip
  alveolar repair (in words): induces alveolar repair, reversing the alveolar destruction caused by treatment with elastase
Experimental emphysema
  % Repair: 37.6%
[2]
  triglyceride levels (in words): either on the high end of normal or elevated
[2]; normal rat 75-175 mg/dl
  [Triglyceride]: 182 mg/dL
Alveolar septation
  number of alveoli / septation in lungs (in words): the capacity of dexamethasone to prevent the expression of CRBP and RARβ mRNA and subsequent alveolar septation in developing rat lung was abrogated by ATRA
emphysema
  formation of new alveoli and elastic recoil (in words): can induce formation of new alveoli and return elastic recoil to near normal
RAR subtypes
  binding to the three RAR subtypes (in words): binds with approximately equal affinity to all the three RAR subtypes
RXR receptors
  binding to RXR receptors (in words): does not bind to the RXR receptors
